Measurements published in US20140037694A1, “ADJUVANT FOR TRANSDERMAL OR TRANSMUCOSAL ADMINISTRATION AND PHARMACEUTICAL PREPARATION CONTAINING SAME” (HISAMITSU PHARMACEUTICAL CO., INC., priority 2011, published 2014).
“Also recorded” adds a separate entry of the source.

How the values were obtained:
[1] = test system: OVA-specific IgG antibody titer; test: Microneedle (OVA) application + transdermal adjuvant application; OVA-specific IgG antibody titer by ELISA; format: in vivo, hairless rats; settings: Example 4
Procedure: (§1) Regarding (i) and (ii), OVA 20 μg/[…] (saline) was intradermally administered.

[2] = test system: OVA-specific IgG antibody titer; test: Intradermic injection (OVA) application + glycerin application; OVA-specific IgG antibody titer by ELISA; format: in vivo, hairless rats; settings: Example 4; intradermal OVA 20 μg + glycerin co-used; after two weeks
Procedure: as §1

[3] = test system: OVA-specific IgG antibody titer; test: Microneedle (OVA) application + transdermal adjuvant application; OVA-specific IgG antibody titer by ELISA; format: in vivo, hairless rats; settings: for IgG antibody titer / adjuvant effect (FIG. 1): Example 1, 120 μL stock solution on patch-test tape for 6 hr after OVA microneedles, dosing weeks 0, 2, 4; for IgG antibody titer / adjuvant effect (FIG. 1) / IgG antibody titer / adjuvant effect (FIG. 2) / IgG antibody titer / adjuvant effect (FIG. 5): titers after 5 weeks; for IgG antibody titer / adjuvant effect (FIG. 1) / IgG antibody titer / adjuvant effect (FIG. 5): compared to OVA alone; for IgG antibody titer / adjuvant effect (FIG. 2): Example 3, purified water control; for IgG antibody titer / adjuvant effect (FIG. 2) / IgG antibody titer / adjuvant effect (FIG. 5): 120 μL stock solution, 6 hr after OVA microneedles; for IgG antibody titer / adjuvant effect (FIG. 5): Example 5; for Adjuvant effect against anti-OVA IgG: titers after 4 weeks
skin = test system: skin; design: Skin irritation score: key to the marks not given beside the values; settings: rat, in vivo

For `OCC(O)CO` [glycerin], the “Adjuvant effect (FIG. 3)” value ([1]; OVA by microneedles + glycerin 120 μL 6 hr, titers after 4 weeks, compared to intradermal injection of OVA) was “exhibited more clearly by the microneedle application”, the “IgG antibody titer time course (FIG. 4)” value ([1]; OVA microneedles with concomitant glycerin, from 2 weeks) was “increase the IgG antibody titer was observed” and the “IgG antibody (FIG. 4)” value [2] was “no IgG antibody was detected”. The “IgG antibody titer / adjuvant effect (FIG. 1)” value [3] was “high adjuvant effect”, the “IgG antibody titer / adjuvant effect (FIG. 2)” value [3] was “adjuvant effect of the glycerin was confirmed” and the “IgG antibody titer / adjuvant effect (FIG. 5)” value [3] was “strong adjuvant effect”. For the same compound, the “Adjuvant effect against anti-OVA IgG” value ([3]; Example 6, glycerin concentration 25%, 120 μL 6 hr) was “none”, the “Adjuvant effect against anti-OVA IgG” value ([3]; Example 6, glycerin concentration 75%, 120 μL 6 hr) was “excellent adjuvant effect was confirmed” and the “Adjuvant effect against anti-OVA IgG” value ([3]; Example 6, glycerin concentration 75%, 120 μL 6 hr, listed as Glycerin) was “present”. For the same compound, the “Adjuvant effect against anti-OVA IgG” value ([3]; Example 7, 100% glycerin applied 10 min after antigen administration by microneedles, 6 hr) was “apparent increase in the IgG antibody titer; also recorded: high IgG antibody titer”, the “Adjuvant effect against anti-OVA IgG” value ([3]; Example 7, 100% glycerin applied 10 min after antigen administration by microneedles, 6 hr, listed as Glycerin) was “present” and the “Adjuvant effect against anti-OVA IgG” value ([3]; Example 7, simultaneously with antigen, mixture of OVA/pullulan/41% glycerin on microneedles) was “no adjuvant effect was observed”. The “Adjuvant effect against anti-OVA IgG” value ([3]; Example 7, simultaneously with antigen, mixture of OVA/pullulan/41% glycerin on microneedles, listed as Glycerin) was “none” and the Adjuvant effect ([3]; glycerin concentration 100 wt %) was “particularly excellent adjuvant effect”.

In the case of `CCO` [ethanol], the Skin irritation observation (skin) is reported as “significant skin irritation accompanied by necrosis”, the Skin irritation score (skin) is reported as “+++” and the “IgG antibody titer / adjuvant effect (FIG. 1)” value [3] is reported as “high adjuvant effect”.

In the case of `CCCCCCCC/C=C\CCCCCCCC(=O)OCC(O)CO` (stereo not shown) [GMO, monoglyceryl oleate], the “IgG antibody titer / adjuvant effect (FIG. 5)” value [3] is reported as “adjuvant effect similar to that of low molecules such as glycerin”.

`CC(=O)OCC(COC(C)=O)OC(C)=O` [triacetin] was tested, and the “IgG antibody titer / adjuvant effect (FIG. 5)” value [3] was “strong adjuvant effect”.

In the case of `CC(O)CO` (stereo not shown) [PG, propylene glycol], the “IgG antibody titer / adjuvant effect (FIG. 5)” value [3] is reported as “strong adjuvant effect”.

With `CC(C)=CCC/C(C)=C/CC/C(C)=C/CC/C=C(\C)CC/C=C(\C)CCC=C(C)C` [squalene, reference compound] the Skin irritation (skin) was “no skin irritation” and the “IgG antibody titer / adjuvant effect (FIG. 2)” value [3] was “low IgG antibody titer similar to the control”.
